Patent US8198317B2, “Methylenedioxy phenolic compounds and their use to treat disease” (The Ohio State University Research Foundation, priority 2008, dated 2012)

Columns and labels:
Patient = assay: Treatment of a patient with chronic myocardial infarction (Example 19); assay type: in vivo, human; settings: 1.0 to 100 mg/kg with standard therapy
Protocol: A person with a prior history of a heart attack (myocardial infarction) 1 year ago presents for evaluation. They are asymptomatic. The patient is administered a composition comprising an effective amount of 3,4-Methylenedioxy 6-nitro phenyl lipoate (INV-7465) (1.0 to 100 mg/kg). Alternate therapies include, 3,4-methylenedioxy phenyl acetate (INV 73); 3,4-methylenedioxy-6-nitrophenol (INV 74); 3,4-methylenedioxy-6-nitrophenyl acetate (INV 75); 3,4-Methylenedioxy 6-nitro phenyl lipoate (INV-7465) or 3,4-Methylenedioxy phenyl lipoate (INV-7065). The composition is administered in conjunction with therapy such as aspirin, a drug to reduce the tendency of platelet aggregation, such as clopidogrel bisulfate, a statin, ezetimibe, an angiotensin converting enzyme inhibitor or angiotensin receptor blocker, and other anti-hypertensive agents such as beta-blockers, using dosages known to one of ordinary skill in the art. Patient notes added benefit in total and LDL cholesterol and a reduction in inflammatory markers such as C reactive protein.

VCAM-1 = VCAM-1 western blot in TNFα treated HUVECs; assay type: cell-based, human
Protocol: FIG. 25 is a graph showing VCAM-1 protein expression level as a cellular correlate of inflammation. INV-75 inhibits TNFα induced VCAM-1 expression in HUVECs. HUVECs were pretreated with vehicle, INV75, or WY-14643 for 2 hours, and then treated with TNFα for 4 hours. VCAM-1 expression was analyzed by Western blot. A representative and summary of three independent experiments are presented. *, p<0.05 vs control; #, p<0.05 vs TNFα.
In subsequent experiments we also tested the effects of INV-75 on VCAM-1 expression by western blot.
We have also examined the effects of INV-75 in cell culture to understand its effects on regulation of the adhesion molecule VCAM-1. We had previously shown that iNV-75 reduced NF-kB activation and expression of VCAM-1 and ICAM-1 in HUVEC cells (see FIG. 3 and FIG. 4). […] HUVECs were pretreated with vehicle, INV-75, or WY-14643 for 2 hours, and then treated with TNFα for 4 hours. VCAM-1 expression was analyzed at the end of this duration. A representative and summary of three independent experiments are presented. *, p<0.05 vs control; #, p<0.05 vs TNFα (FIG. 25).

[1] = system: Watanabe Heritable Hyperlipidemic Rabbits (WHHL); assay: MRI of abdominal aortic wall volume in WHHL rabbits; assay type: in vivo, rabbit
Protocol: In vivo experiments on hypercholesterolemic rabbits (Watanabe Heritable Hyperlipidemic Rabbits, WHHL) were performed in 6 rabbits treated with INV-75. Four rabbits served as controls.
Animal Model: WHHL rabbits weighing approximately 2 kg at 2 months were purchased from Brown Family in Alabama and housed in the institutional Laboratory Animal Center. Rabbits at the age of 6 months were used for all experiments. Rabbits were allowed free access to water and were fed a high cholesterol chow (2% cholesterol) from Harlan Tekad TD 7251. The animal care and experimental protocols were in accordance with nationally approved guidelines. The protocol that the rabbits were subjected to is outlined in FIG. 7. INV-75 was dissolved in 90% ethanol and sprayed on the high fat chow. The diet-drug mixture was then vacuum dried overnight to remove ethanol and then used to feed rabbits.
Each animal underwent three MRI studies: the first one prior to high fat feeding (baseline prior to drug administration); the second at the mid-point of drug therapy; and the final study after 12 weeks of drug therapy (FIG. 7). […] At the end of the study, all animals underwent an MRI study for plaque volume quantification. […]
High-resolution non-invasive MRI served to assess the degree of atherosclerosis before and after the corresponding treatments. Atherosclerotic plaque in the abdominal aorta of WHHL rabbits was analyzed by in vivo MRI scans at the indicated time points (FIG. 7). […] Plaque burden was determined by manually tracing the external elastic lamina (EEM) and the luminal border (L) and determining the area within each boundary using Siemens Viewer software. Slice volume (V) was calculated as V=(EEM-L)*4.0 and total wall volume per animal was calculated using the formula TWV=Σ[(EEM-L)*4] and expressed in mm^3. TWVs for each animal at each time point were normalized for varying numbers of readable slices with the formula NWV=(TWV/n)*m; n=number of slices readable in the individual animal and m=mean number of slices readable in all animals over all time points. […]

[2] = system: Watanabe Heritable Hyperlipidemic Rabbits (WHHL); assay: Morphometric analysis of atherosclerotic burden in WHHL rabbits; assay type: in vivo, rabbit; settings: end of 12 weeks, H&E morphometry
Protocol: Segments of descending thoracic aorta were embedded in Optimal Cutting Temperature compound (Tissue-Tek, Sakura Finetek USA Inc, Torrance, Calif.) and frozen on dry ice. En face sections were then prepared. To analyze atherosclerotic burden, 8 sections (4 μm thick) were collected at intervals of 20 μm. After H&E staining, each section was digitized with a digital camera and analyzed using a microscope (Zeiss Axioskop with Spot I digital camera, Jena, Germany) with National Institutes of Health (NIH) Image software version 1.61. Results were expressed as mm^2. Morphometric assessment of plaque burden in the thoracic aorta at the end of 12 weeks corroborated the anti-atherosclerotic effects of INV-75 by MRI on the abdominal aorta. The summary of atherosclerotic burden in abdominal aorta of control and INV-75 groups of WHHL rabbits are presented. n=5/group. *, p<0.05 vs control animals, n=4, using un-paired t test. Approximately 60% reduction in atherosclerosis burden in WHHL rabbits compared to control group was observed (FIG. 9).

SMILES	inflammatory markers such as C reactive protein (Patient)	total and LDL cholesterol (Patient)	TNFα induced VCAM-1 expression (VCAM-1; HUVECs pretreated 2 hours, then TNFα 4 hours)	VCAM-1 protein levels by western blot (VCAM-1; pre-treatment versus control (vehicle))	wall volume, abdominal aorta, MRI ([1]; 12 weeks) [cm^3]	Mean normalized wall volume (NWV), abdominal aorta, MRI ([1]; baseline, prior to supplementation) [cm^3]	mean plaque volume, abdominal aorta, MRI ([1]; study midpoint, 6 weeks of supplementation) [cm^3]	reduction in atherosclerosis burden compared to control group [2]
O=C(CCCCC1CCSS1)Oc1cc2c(cc1[N+](=O)[O-])OCO2 (centres unmarked) [INV-7465, 3,4-Methylenedioxy 6-nitro phenyl lipoate]	reduction	added benefit	–	–	–	–	–	–
CC(=O)Oc1cc2c(cc1[N+](=O)[O-])OCO2 [INV-75, 3,4-methylenedioxy-6-nitrophenyl acetate]	–	–	inhibits	reduction	0.37	0.24	0.35	Approximately 60%
